{"source": "paper PMC10267539", "about": "(EJNMMI Radiopharmacy and Chemistry, 2023)", "key": {"[1]": {"details": "based on toxicity study in Wistar rats", "method": "For DOTA-MGS5, a toxicity study in Wistar rats was carried out in a GLP-compliant laboratory."}, "[2]": {"experiment": "In vitro stability in PBS and serum", "assay_type": "in vitro ADME", "details": "37 °C, after 5 h, starting radiochemical purity 94.3%", "method": "(§1) The in vitro stability of the corresponding radiocomplexes was determined in PBS and human serum at 37 °C. […] Cell viability (10^4 cells/well) and clonogenic assay (10^3 cells/well) was performed with [^213Bi]Bi-3p-C-NETA-TATE using the same cell line."}, "[3]": {"tested_on": "SSTR2 expressing cells (BON-1.SSTR2)", "experiment": "Cell binding and internalization", "assay_type": "cell-based", "details": "BON-1.SSTR2, 60 min incubation", "method": "as §1"}, "BON-1.SSTR2": {"tested_on": "BON-1.SSTR2", "experiment": "Clonogenic assay", "assay_type": "cell-based", "method": "as §1"}, "CXCR4 [4]": {"biological_target": "CXCR4 (UniProt P61073)", "sequence (P61073 whole entry)": "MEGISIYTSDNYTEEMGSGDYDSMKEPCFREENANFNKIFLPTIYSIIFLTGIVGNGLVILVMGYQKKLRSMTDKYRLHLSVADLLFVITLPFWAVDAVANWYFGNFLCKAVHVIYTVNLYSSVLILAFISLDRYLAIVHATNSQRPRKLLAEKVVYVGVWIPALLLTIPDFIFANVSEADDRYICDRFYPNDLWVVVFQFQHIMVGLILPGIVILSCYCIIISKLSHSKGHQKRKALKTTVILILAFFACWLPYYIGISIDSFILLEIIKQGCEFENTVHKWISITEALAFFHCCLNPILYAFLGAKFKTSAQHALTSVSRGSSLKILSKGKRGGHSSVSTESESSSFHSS", "experiment": "competitive binding assay on cells with a fluorescent ligand"}, "CXCR4 [5]": {"biological_target": "CXCR4 (UniProt P61073)", "experiment": "radioligand binding"}, "[6]": {"biological_target": "glucagon-like peptide-1 (GLP-1) receptor (UniProt P43220)", "sequence (P43220 24-463)": "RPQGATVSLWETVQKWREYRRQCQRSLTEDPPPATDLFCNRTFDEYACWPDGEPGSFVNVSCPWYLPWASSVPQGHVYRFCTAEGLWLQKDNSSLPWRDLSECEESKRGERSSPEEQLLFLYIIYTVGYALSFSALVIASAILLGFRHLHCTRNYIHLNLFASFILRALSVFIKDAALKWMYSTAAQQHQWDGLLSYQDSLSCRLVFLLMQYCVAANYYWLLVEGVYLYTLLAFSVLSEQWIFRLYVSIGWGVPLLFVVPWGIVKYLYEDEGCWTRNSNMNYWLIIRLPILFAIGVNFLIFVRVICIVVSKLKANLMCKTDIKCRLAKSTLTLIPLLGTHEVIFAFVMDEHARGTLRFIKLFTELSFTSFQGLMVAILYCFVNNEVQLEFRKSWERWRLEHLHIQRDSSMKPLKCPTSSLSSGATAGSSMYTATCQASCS", "experiment": "competitive binding assay on cells"}, "[7]": {"details": "37 °C, after 6 h", "method": "The stability of the radiolabeled peptide in human plasma and normal saline as well as partition coefficient (LogP) was determined. The effect of the peptide on platelet aggregation and the percent of binding radiopeptide to fibrin were studied."}, "fibrin": {"biological_target": "fibrin (UniProt P02679)", "sequence (P02679 whole entry, looked up)": "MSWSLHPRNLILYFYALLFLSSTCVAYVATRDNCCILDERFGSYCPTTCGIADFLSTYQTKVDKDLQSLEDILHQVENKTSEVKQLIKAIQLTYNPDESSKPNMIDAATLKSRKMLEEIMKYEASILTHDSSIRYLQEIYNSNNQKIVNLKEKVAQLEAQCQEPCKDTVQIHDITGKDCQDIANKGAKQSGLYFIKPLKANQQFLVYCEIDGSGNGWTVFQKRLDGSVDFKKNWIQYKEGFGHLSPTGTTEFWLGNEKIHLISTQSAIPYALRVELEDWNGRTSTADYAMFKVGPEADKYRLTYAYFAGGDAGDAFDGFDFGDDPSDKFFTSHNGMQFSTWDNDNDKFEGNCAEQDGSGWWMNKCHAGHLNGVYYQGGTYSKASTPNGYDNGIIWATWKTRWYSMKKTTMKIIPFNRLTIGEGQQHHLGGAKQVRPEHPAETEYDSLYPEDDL", "experiment": "binding of the radiolabelled pept"}, "plaque inflammation": {"tested_on": "plaque inflammation", "experiment": "F-18 FDG PET of plaque inflammation (carotid TBR)", "assay_type": "in vivo, human", "protocol": "Materials and methods: We retrospectively analyzed F-18 FDG PET scans of patients treated with I-131 rituximab for the first time for relapsed or refractory CD20(+) B cell lymphoma. F-18 FDG PET scans were performed before (PET1), 5 days (PET2), and 1 m (PET3) after the administration of I-131 rituximab. […] TBRs measured in PET1, PET2, and PET3 were designated as TBR1, TBR2, and TBR3, respectively. Statistical analysis was performed using the Wilcoxon-test for comparison between the groups. In addition, we divided patients into 2 groups (patients with higher TBR1 versus equal to or lower TBR1 than the median value of TBR1) and compared TBRs on each PET dataset."}, "HER2": {"biological_target": "T1, HER2 (Homo sapiens, UniProt P04626)", "T1 construct": "flow cytometry in BT-474 (high HER2 density) and MCF-7 (low HER2 density); endogenous in cells; host or cells: BT-474 and MCF-7 cells", "experiment": "Binding by flow cytometry", "details": "BT-474 / MCF-7, cell line not stated"}, "[8]": {"biological_target": "human cholecystokinin-2 receptor (CCK2R) (human) (UniProt P32239)", "sequence (P32239 whole entry)": "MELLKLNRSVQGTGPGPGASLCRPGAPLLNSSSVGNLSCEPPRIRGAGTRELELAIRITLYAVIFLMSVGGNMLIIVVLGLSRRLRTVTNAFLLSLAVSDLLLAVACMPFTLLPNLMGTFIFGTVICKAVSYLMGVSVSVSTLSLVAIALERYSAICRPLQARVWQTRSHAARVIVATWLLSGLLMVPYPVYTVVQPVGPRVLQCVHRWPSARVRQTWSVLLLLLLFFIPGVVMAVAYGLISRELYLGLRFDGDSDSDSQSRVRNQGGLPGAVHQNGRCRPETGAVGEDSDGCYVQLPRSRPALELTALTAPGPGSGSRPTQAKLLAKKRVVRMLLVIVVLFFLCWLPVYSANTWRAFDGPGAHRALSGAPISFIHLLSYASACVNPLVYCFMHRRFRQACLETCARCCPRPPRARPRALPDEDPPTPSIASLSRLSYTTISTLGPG", "experiment": "radioligand binding"}, "[9]": {"biological_target": "rat cholecystokinin-2 receptor (CCK2R) (rat) (UniProt P30553)", "sequence (P30553 whole entry)": "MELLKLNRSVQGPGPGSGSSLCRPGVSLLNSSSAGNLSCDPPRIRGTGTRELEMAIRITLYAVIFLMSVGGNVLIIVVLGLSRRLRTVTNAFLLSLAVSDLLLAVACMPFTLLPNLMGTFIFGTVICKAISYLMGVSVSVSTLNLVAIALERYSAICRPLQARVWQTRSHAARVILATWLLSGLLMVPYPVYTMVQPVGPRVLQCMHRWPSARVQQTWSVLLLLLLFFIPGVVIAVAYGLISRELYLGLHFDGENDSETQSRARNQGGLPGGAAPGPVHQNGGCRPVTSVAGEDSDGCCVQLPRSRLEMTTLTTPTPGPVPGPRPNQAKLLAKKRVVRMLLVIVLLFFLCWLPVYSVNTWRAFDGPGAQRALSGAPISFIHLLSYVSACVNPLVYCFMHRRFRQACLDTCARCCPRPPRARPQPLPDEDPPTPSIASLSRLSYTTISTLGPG", "experiment": "radioligand binding"}}, "data": [{"molecule": "CCCC[C@@H](C(=O)N[C@@H](CC(=O)O)C(=O)N[C@@H](Cc1cccc2ccccc12)C(N)=O)N(C)C(=O)[C@H](Cc1c[nH]c2ccccc12)NC(=O)CNC(=O)[C@H](Cc1ccc(O)cc1)NC(=O)[C@H](C)NC(=O)[C@@H](CCC(=O)O)NC(=O)CN1CCN(CC(=O)O)CCN(CC(=O)O)CCN(CC(=O)O)CC1", "note": "[DOTA-MGS5]", "values": [{"measurement": "maximum dose defined for the first therapeutic use", "setting": "[1]", "value": 100, "unit": "µg"}]}, {"molecule": "C[C@@H](O)[C@H](NC(=O)[C@@H]1CSSC[C@H](NC(=O)[C@@H](Cc2ccccc2)NC(=S)Nc2ccc(CCCC(CN3CCN(CC(=O)O)CCN(CC(=O)O)CC3)N(CC(=O)O)CC(=O)O)cc2)C(=O)N[C@@H](Cc2ccc(O)cc2)C(=O)N[C@H](Cc2c[nH]c3ccccc23)C(=O)N[C@@H](CCCCN)C(=O)N[C@@H]([C@@H](C)O)C(=O)N1)C(=O)O", "note": "(stereo partly shown) [[^213Bi]Bi-3p-C-NETA-TATE, metal not drawn]", "values": [{"measurement": "intact radiocomplex", "setting": "[2]; PBS", "value": 90, "unit": "%"}, {"measurement": "remaining at 5 h", "setting": "[2]; human serum, read-out: intact radiocomplex", "value": 90, "unit": "%"}, {"measurement": "cell binding", "setting": "[3]", "value": "3.3 ± 0.5", "unit": "%"}, {"measurement": "internalized share of cell binding", "setting": "[3]", "value": 39.2, "unit": "%"}, {"measurement": "activity required for cell surviving fraction of 0.1 (SF0.1)", "setting": "BON-1.SSTR2", "value": 0.1, "unit": "MBq"}]}, {"molecule": "AlF-NOTA-(2×)DV1(c11sc12s) (peptide)", "values": [{"measurement": "IC50", "setting": "CXCR4 [4]", "value": 1.3, "unit": "nM"}]}, {"molecule": "AlF-NOTA-DV1-k-(DV3) (peptide)", "values": [{"measurement": "total-bound fraction (u87.CXCR4 cells)", "setting": "CXCR4 [5]", "value": 6, "unit": "%"}, {"measurement": "IC50", "setting": "CXCR4 [4]", "value": 5.3, "unit": "nM"}]}, {"molecule": "DOTA-MI-exendin-4 (from UniProt P26349 48-87) (peptide)", "values": [{"measurement": "affinity", "setting": "[6]", "value": "< 11", "unit": "nM"}]}, {"molecule": "DOTA-exendin-4 (from UniProt P26349 48-87) (peptide; other documents disagree on this pair)", "values": [{"measurement": "affinity", "setting": "[6]", "value": "< 11", "unit": "nM"}]}, {"molecule": "HYNIC-Gly-Pro-Lys-Gly-Ala-Ala-Asp [HYNIC-GPLGAAD]", "values": [{"measurement": "stability in human plasma", "setting": "[7]", "value": 95, "unit": "%"}, {"measurement": "effect on platelet aggregation", "setting": "platelet aggregation", "value": "no effect on platelet aggregation"}]}, {"molecule": "HYNIC-Gly-Pro-Lys-Gly-Ala-Ala-Asp peptide", "values": [{"measurement": "other", "setting": "fibrin", "value": 71.4, "unit": "%"}]}, {"molecule": "I-131 rituximab: radioimmunotherapy for CD20(+) B cell lymphoma", "values": [{"measurement": "TBR1", "setting": "plaque inflammation; all 32 patients, PET1 before I-131 rituximab, mean and SD", "value": "1.49 ± 0.28"}, {"measurement": "TBR2", "setting": "plaque inflammation; all 32 patients, PET2 5 days after, mean and SD, P = 0.008 vs TBR1", "value": "1.36 ± 0.21"}, {"measurement": "TBR3", "setting": "plaque inflammation; all 32 patients, PET3 1 m after, mean and SD, P = 0.002 vs TBR1", "value": "1.35 ± 0.19"}, {"measurement": "mean TBR", "setting": "plaque inflammation; patients with higher TBR1 (n = 16), PET1", "value": 1.69}, {"measurement": "mean TBR", "setting": "plaque inflammation; patients with higher TBR1 (n = 16), PET2, P = 0.001", "value": 1.46}, {"measurement": "mean TBR", "setting": "plaque inflammation; patients with higher TBR1 (n = 16), PET3, P < 0.001", "value": 1.42}, {"measurement": "mean TBR", "setting": "plaque inflammation; patients with lower TBR1 (n = 16), PET1", "value": 1.29}, {"measurement": "mean TBR", "setting": "plaque inflammation; patients with lower TBR1 (n = 16), PET2", "value": 1.26}, {"measurement": "mean TBR", "setting": "plaque inflammation; patients with lower TBR1 (n = 16), PET3", "value": 1.29}]}, {"molecule": "NOTA-MI-exendin-4 (from UniProt P26349 48-87) (peptide)", "values": [{"measurement": "affinity", "setting": "[6]", "value": "< 11", "unit": "nM"}]}, {"molecule": "NOTA-exendin-4 (from UniProt P26349 48-87) (peptide; other documents disagree on this pair)", "values": [{"measurement": "affinity", "setting": "[6]", "value": "< 11", "unit": "nM"}]}, {"molecule": "NOTA-rituximab: control IgG", "values": [{"measurement": "KD", "setting": "HER2", "value": "no binding"}]}, {"molecule": "[^177Lu]Lu-DOTA-MGS5 (peptide)", "values": [{"measurement": "other", "setting": "[8]", "value": 68, "unit": "%"}, {"measurement": "other", "setting": "[9]", "value": 48.6, "unit": "%"}]}]}
